Among the data in PubChem BioAssay (NCI) are GI50 and TGI values, retold here.

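A five-concentration, 48-hour dose response in 96-well plates underlies each endpoint, interpolated linearly between surrounding concentrations. Abbreviation: GI50, concentration required for 50% inhibition of growth. TGI is the concentration that stops growth completely.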

Test systems include MDA-MB-231 breast; MDA-MB-435; HCT-116 colon; HOP-62 NSCLC; IGROV1 ovarian; MALME-3M melanoma; NCI-H226 lung; NCI-H23 lung; RPMI-8226 leukemia; TK-10 renal.
Common to all, as to experiment: DTP human tumour cell line panel, 48 h

As for `COc1cc2cc(Oc3ccc(NC(=O)Nc4ccc(F)c(C(F)(F)F)c4)cc3)c(C)nc2cc1OCCN1CCCCC1`, in the test on MDA-MB-231 breast, the GI50 is 1.67 µM and the TGI came to 3.19 µM. Moreover, in the test with MDA-MB-435, the GI50 is 1.74 µM and the TGI amounted to 3.14 µM.
For the compound `CCOC(=O)c1ncoc1[C@H]1COC(C)(C)O1`, the TGI with HCT-116 colon, in the test with HOP-62 NSCLC, with IGROV1 ovarian, in the test with MALME-3M melanoma, in the test on NCI-H226 lung and in the test on NCI-H23 lung was above 100 µM throughout. The concentration for total growth inhibition (TGI) in the test on RPMI-8226 leukemia and in the test on TK-10 renal was above 100 µM each time.
`O=C(c1ccccc1)c1nn(-c2ccc(Cl)cc2)c2nc3nc(-c4ccccc4)cc(=O)n3nc12`: the GI50 with HCT-116 colon was 19.9 µM; in the test with HOP-62 NSCLC it was 32.3 µM; in the test with IGROV1 ovarian it was 18.3 µM; with MALME-3M melanoma, 3.08 µM; with MDA-MB-231 breast, 26 µM; in the test with MDA-MB-435, 6.65 µM. In addition, the GI50 in the test on NCI-H226 lung is above 100 µM; in the test on NCI-H23 lung, 65.6 µM; in the test on RPMI-8226 leukemia, 28.8 µM; in the test on TK-10 renal it was 31.8 µM. Also, the concentration for total growth inhibition (TGI) is 52.2 µM in the test on HCT-116 colon; above 100 µM with HOP-62 NSCLC; above 100 µM with IGROV1 ovarian; 65.1 µM with MALME-3M melanoma; above 100 µM in the test with MDA-MB-231 breast; above 100 µM in the test on MDA-MB-435. Further, the TGI in the test on NCI-H226 lung was above 100 µM; with NCI-H23 lung it was above 100 µM; with RPMI-8226 leukemia it was above 100 µM; in the test on TK-10 renal, 85.6 µM.
